The source of these data is patent publication EP2928504B1, “PROTEIN-POLYMER-DRUG CONJUGATES” (Mersana Therapeutics, Inc., priority 2012, dated 2014).

Where two headings read alike, the source gives them in different places.

Broadly, the IC50 is the midpoint of a concentration-inhibition curve.

Among the test systems are NCI-N87; HCT15; MCF7.
Experiment in all cases: Cell viability assay (Cell Titer-Glo)
Common to all, as to assay type: cell-based
(Cellular ATP, detected with luciferase, serves as a proxy for viable cell number.)

A further assay relates to SKBR3. The following applies: Homo sapiens, SK-BR-3, 72 h.
A further assay has as its system BT474. To be noted: Homo sapiens, BT-474, 72 h.
Where [1] appears, read: Homo sapiens, NCI-N87, 72 h, Table VIII, drug compounds, read-out: N87 IC50.
Setting [2] is: Homo sapiens, HCT-15, 72 h, Table VIII, drug compounds, read-out: HCT15 IC50.
Where [3] appears, read: Table VIII, drug compounds, read-out: SKBR3 IC50.
Where [4] appears, read: Homo sapiens, MCF7, 72 h, Table VIII, drug compounds, read-out: MCF7 IC50.
Setting [5] is: Table VIII, drug compounds, read-out: BT474 IC50.

Method for BT474: (§1) PBRM-drug polymer conjugates were evaluated for their tumor viability using Cell Titer-Glo (Promega Corp). Cells were plated in black walled 96-well plate and allowed to adhere overnight at 37°C in a humidified atmosphere of 5% CO2. HER2 expressing cells SKBR3, BT474, NCI-N87 and cells expressing low levels of HER2-MCF7 were plated at a density of 5,000 cells per well. The next day the medium was replaced with 50 µL fresh medium and 50 µL of 2x stocks of PBRM-drug polymer conjugate, drug polymer conjugate or drug were added to appropriate wells, mixed and incubated for 72 h. Cell Titer-Glo reagent was added to the wells at room temperature and the luminescent signal was measured after 10 min using a SpectraMax M5 plate reader (Molecular Devices). Dose response curves were generated using SoftMax Pro software. IC50 values were determined from four-parameter curve fitting.
Method for MCF7: as §1
Method for NCI-N87: as §1
Method for SKBR3: as §1

Take `CCC(C)C(C(CC(=O)N1CCCC1C(OC)C(C)C(=O)NC(C)C(O)c1ccccc1)OC)N(C)C(=O)C(NC(=O)C(C(C)C)N(C)C)C(C)C` (stereo not shown) [drawing 777 (R90 = -H)]: the IC50 in the assay on NCI-N87 (setting [1]) worked out at 0.24 nM; in the assay with HCT15 (setting [2]), 10.1 nM.
Turning to `CCCO[C@H](C[C@H](C(C)C)N(CCC)C(=O)[C@@H](NC(=O)[C@H]1CCCCN1C)[C@@H](C)CC)c1nc(C(=O)N[C@@H](Cc2ccc(O)cc2)C[C@H](C)C(=O)OC)cs1` [drawing 786 (R43 = H, R78 = -OCH3)], the IC50 in the assay with SKBR3 (setting [3]) was determined as 0.71 nM; in the assay with MCF7 (setting [4]), 3.02 nM.
Take `COc1cc2cc(C(=O)N3C[C@@H](CCl)c4c3cc(OC(=O)CCN)c3ccccc43)[nH]c2c(OC)c1OC`: the IC50 in the assay with SKBR3 (setting [3]) was found to be 2.07 nM; in the assay on MCF7 (setting [4]), 1.4 nM; in the assay with HCT15 (setting [2]), 2.5 nM; with BT474 (setting [5]), 6.54 nM.
For the compound `CCC(C)C(C(CC(=O)N1CCCC1C(OC)C(C)C(=O)NC(Cc1ccccc1)C(=O)NCCCOC(=O)C1CCCN1)OC)N(C)C(=O)C(NC(=O)C(C(C)C)N(C)C)C(C)C` (stereo not shown), the IC50 turned out to be 0.88 nM in the assay with SKBR3 (setting [3]); 3.3 nM in the assay on MCF7 (setting [4]); 1.51 nM with NCI-N87 (setting [1]); 85.7 nM in the assay on HCT15 (setting [2]); 3.5 nM in the assay on BT474 (setting [5]).
Consider `CCC(C)C(C(CC(=O)N1CCCC1C(OC)C(C)C(=O)NC(Cc1ccccc1)C(N)=O)OC)N(C)C(=O)C(NC(=O)C(C(C)C)N(C)C)C(C)C` (stereo not shown) [drawing 765 (R40 = H)], for which the figures for the IC50 in the assay with SKBR3 (setting [3]) and in the assay with MCF7 (setting [4]) were 0.32 nM and 1.78 nM, respectively.
As for `COc1cc2cc(C(=O)N3C[C@@H](CCl)c4c3cc(OC(=O)N3CCN(CCN)CC3)c3ccccc43)[nH]c2c(OC)c1OC`, the IC50 in the assay on SKBR3 (read-out: SKBR3 IC50, Table VIII, drug compounds) turned out to be 100 nM; in the assay on MCF7 (Homo sapiens, MCF7, 72 h, read-out: MCF7 IC50, Table VIII, drug compounds), 100 nM; in the assay on NCI-N87 (Homo sapiens, NCI-N87, 72 h, read-out: N87 IC50, Table VIII, drug compounds), 77 nM; in the assay with HCT15 (Homo sapiens, HCT-15, 72 h, read-out: HCT15 IC50, Table VIII, drug compounds), 68 nM; in the assay with BT474 (read-out: BT474 IC50, Table VIII, drug compounds), 100 nM.
Turning to `CCC(C)C(C(CC(=O)N1CCCC1C(OC)C(C)C(=O)NC(Cc1ccccc1)C(=O)NCCN)OC)N(C)C(=O)C(NC(=O)C(C(C)C)N(C)C)C(C)C` (stereo not shown), in the assay on NCI-N87 (setting [1]), the IC50 is 0.89 nM.
For `CCCO[C@H](C[C@H](C(C)C)N(CCC)C(=O)[C@@H](NC(=O)[C@H]1CCCCN1C)[C@@H](C)CC)c1nc(C(=O)N[C@@H](Cc2ccc(O)cc2)C[C@H](C)C(=O)O)cs1` [drawing 786 (R43 = H, R78 = -OH)], the IC50 in the assay with SKBR3 (setting [3]) is 0.06 nM; with NCI-N87 (setting [1]), 0.1 nM; with HCT15 (setting [2]) it was 0.29 nM; in the assay on BT474 (setting [5]) it was 0.04 nM.
Regarding `CCC(C)C(C(CC(=O)N1CCCC1C(OC)C(C)C(=O)NC(Cc1ccccc1)C(=O)NO)OC)N(C)C(=O)C(NC(=O)C(C(C)C)N(C)C)C(C)C` (stereo not shown) [drawing 765 (R40 = -OH)], the results for the IC50 with SKBR3 (setting [3]), in the assay with MCF7 (setting [4]) and in the assay on BT474 (setting [5]) were 12 nM, 39 nM and 20.6 nM, respectively.
With `COc1cc2cc(C(=O)N3C[C@@H](CCl)c4c3cc(O)c3ccccc43)[nH]c2c(OC)c1OC` [drawing 780 (R91 = H)], the IC50 amounted to 1.05 nM with SKBR3 (setting [3]), 0.99 nM with MCF7 (setting [4]), 1.75 nM in the assay with HCT15 (setting [2]) and 3.7 nM in the assay on BT474 (setting [5]).
As for `CCC(C)C(C(CC(=O)N1CCCC1C(OC)C(C)C(=O)NC(Cc1ccccc1)C(=O)OC)OC)N(C)C(=O)C(NC(=O)C(C(C)C)N(C)C)C(C)C` (stereo not shown) [drawing 761 (R42 = -CH3)], the IC50 with MCF7 (setting [4]) is 0.27 nM; in the assay with NCI-N87 (setting [1]) it was 0.03 nM; with HCT15 (setting [2]), 0.41 nM; in the assay on BT474 (setting [5]), 0.09 nM.
As for `CCCO[C@H](C[C@H](C(C)C)N(CCC)C(=O)[C@@H](NC(=O)[C@H]1CCCCN1C)[C@@H](C)CC)c1nc(C(=O)N[C@@H](Cc2ccc(OC(=O)NCCCCN)cc2)C[C@H](C)C(=O)O)cs1`, the IC50 in the assay on SKBR3 (setting [3]) is 0.08 nM; in the assay on MCF7 (setting [4]), 0.68 nM; with NCI-N87 (setting [1]), 0.24 nM; in the assay on HCT15 (setting [2]), 4.6 nM; with BT474 (setting [5]) it was 0.1 nM.
As to `COc1cc2cc(C(=O)N3C[C@@H](CCl)c4c3cc(OC(=O)[C@@H]3CCCN3)c3ccccc43)[nH]c2c(OC)c1OC`, the IC50 in the assay with SKBR3 (setting [3]) was 1.34 nM; in the assay on NCI-N87 (setting [1]), 0.93 nM; with HCT15 (setting [2]), 1.53 nM; in the assay with BT474 (setting [5]), 4.55 nM.
Consider `CCCO[C@H](C[C@H](C(C)C)N(CCC)C(=O)[C@@H](NC(=O)[C@H]1CCCCN1C)[C@@H](C)CC)c1nc(C(=O)N[C@@H](Cc2ccc(O)cc2)C[C@H](C)C(N)=O)cs1` [drawing 786 (R43 = H, R78 = -NH2)], for which the IC50 is 1.6 nM in the assay with SKBR3 (setting [3]), 3.3 nM with MCF7 (setting [4]), 3.2 nM with NCI-N87 (setting [1]) and 1.35 nM in the assay on BT474 (setting [5]).
Consider `CCC(C)C(C(CC(=O)N1CCCC1C(OC)C(C)C(=O)NC(Cc1ccccc1)C(=O)OCCN)OC)N(C)C(=O)C(NC(=O)C(C(C)C)N(C)C)C(C)C` (stereo not shown), for which the IC50 with NCI-N87 (setting [1]) was 0.89 nM.
Turning to `COc1cc2cc(C(=O)N3C[C@@H](CCl)c4c3cc(OC(=O)N(C)CCO)c3ccccc43)[nH]c2c(OC)c1OC`, the IC50 was found to be 21.5 nM in the assay with SKBR3 (setting [3]); 100 nM in the assay on MCF7 (setting [4]); 30 nM in the assay on NCI-N87 (setting [1]); 100 nM in the assay with HCT15 (setting [2]); 68 nM in the assay on BT474 (setting [5]).
As to `CCCO[C@H](C[C@H](C(C)C)N(CCC)C(=O)[C@@H](NC(=O)[C@H]1CCCCN1C)[C@@H](C)CC)c1nc(C(=O)N[C@@H](Cc2ccc(O)cc2)C[C@H](C)C(=O)OCCCN)cs1`, the IC50 with HCT15 (setting [2]) is 23 nM.
Take `CCC(C)C(C(CC(=O)N1CCCC1C(OC)C(C)C(=O)NC(Cc1ccccc1)C(=O)NCC(C)O)OC)N(C)C(=O)C(NC(=O)C(C(C)C)N(C)C)C(C)C` (stereo not shown) [drawing 771]: the IC50 in the assay with SKBR3 (setting [3]) was found to be 0.44 nM; in the assay with MCF7 (setting [4]) it was 1.88 nM; in the assay with NCI-N87 (setting [1]), 0.69 nM; with HCT15 (setting [2]), 31.8 nM; in the assay on BT474 (setting [5]), 1.27 nM.
`COc1cc2cc(C(=O)N3C[C@@H](CCl)c4c3cc(OC(=O)[C@@H](N)C(C)C)c3ccccc43)[nH]c2c(OC)c1OC`: the IC50 in the assay with SKBR3 (setting [3]) came to 0.95 nM; in the assay with NCI-N87 (setting [1]), 0.96 nM; with BT474 (setting [5]) it was 3.47 nM.
In the case of `CCC(C)C(C(CC(=O)N1CCCC1C(OC)C(C)C(=O)NC(Cc1ccccc1)C(=O)NCC(C)O)OC)N(C)C(=O)C(NC(=O)C(C(C)C)N(C)C)C(C)C` (stereo not shown) [drawing 772], the IC50 worked out at 2.06 nM in the assay on MCF7 (Table VIII, drug compounds, 72 h, read-out: MCF7 IC50); 0.78 nM with NCI-N87 (Table VIII, drug compounds, 72 h, read-out: N87 IC50); 32.4 nM in the assay on HCT15 (Table VIII, drug compounds, 72 h, read-out: HCT15 IC50).
